Data as given in patent US20250101041A1, “POSITIVE ALLOSTERIC MODULATORS OF THE MUSCARINIC ACETYLCHOLINE RECEPTOR M4” (Vanderbilt University, priority 2022, published 2025).

Target: T1, human mAChR M4 (Homo sapiens, UniProt P08173)
T1 construct: expressed in transfected cells; host or cells: CHO-K1 (American Type Culture Collection), stably expressing hM4 and Gqi5
T1 sequence (P08173 1-479): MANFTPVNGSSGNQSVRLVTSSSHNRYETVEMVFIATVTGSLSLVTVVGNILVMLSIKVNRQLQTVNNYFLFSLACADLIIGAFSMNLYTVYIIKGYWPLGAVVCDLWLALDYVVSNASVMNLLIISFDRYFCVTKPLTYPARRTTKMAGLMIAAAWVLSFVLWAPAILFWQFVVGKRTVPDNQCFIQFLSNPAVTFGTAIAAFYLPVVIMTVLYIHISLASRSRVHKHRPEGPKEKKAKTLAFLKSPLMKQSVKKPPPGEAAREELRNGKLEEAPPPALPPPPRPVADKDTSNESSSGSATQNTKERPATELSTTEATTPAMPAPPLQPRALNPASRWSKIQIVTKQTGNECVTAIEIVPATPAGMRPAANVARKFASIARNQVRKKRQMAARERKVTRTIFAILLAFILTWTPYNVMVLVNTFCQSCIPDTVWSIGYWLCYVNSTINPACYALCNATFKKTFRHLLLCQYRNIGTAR
Experiment: mAChR M4 cell-based functional assay: calcium mobilization (Fluo-4, FDSS), potentiation of EC20 acetylcholine response in hM4-Gqi5 CHO-K1 cells
Conditions: human M4; for Emax at 30 µM: CHO-K1, % ACh maximum at 30 μM; for EC50: potentiation of EC20 acetylcholine response, calcium mobilization
In short: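 CHO-K1 cells stably co-expressing human M4 and chimeric Gqi5, loaded with Fluo-4 AM (50 min, 37 °C). Compounds in 11-point 1:3 series added first; EC20 acetylcholine added at 144 s and again at 230 s. Calcium read on FDSS at 1 Hz; EC50 and Emax from four-parameter logistic fit of potentiated EC20 response.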

Row | Emax at 30 µM [%] | EC50 [nM] | Compound
1 | 83 | 18 | Cc1cc(=O)n2nc(N3CCc4ncc(N5CCCn6nccc65)cc4C3)c(C)c(C)c2n1 [Compound 2-23, 7-(3-(6,7-dihydropyrazolo[1,5-a]pyrimidin-4(5H)-yl)-7,8-dihydro-1,6-naphthyridin-6(5H)-yl)-2,8,9-trimethyl-4H-pyrimido[1,2-b]pyridazin-4-one]
2 | 95 | 51 | Cc1cc2nc(C(F)F)cc(=O)n2nc1N1CCc2ncc(N3CCOC(C)(C)C3)cc2C1 [Compound 2-24, 2-(difluoromethyl)-7-(3-(2,2-dimethylmorpholino)-7,8-dihydro-1,6-naphthyridin-6(5H)-yl)-8-methyl-4H-pyrimido[1,2-b]pyridazin-4-one]
3 | 90 | 209 | Cc1cc2nc(C(F)F)cc(=O)n2nc1N1CCc2ncc(N3CCO[C@H](C)C3)cc2C1 [Compound 2-25, (R)-2-(difluoromethyl)-8-methyl-7-(3-(2-methylmorpholino)-7,8-dihydro-1,6-naphthyridin-6(5H)-yl)-4H-pyrimido[1,2-b]pyridazin-4-one]
4 | 87 | 105 | Cc1cc2nc(C(F)F)cc(=O)n2nc1N1CCc2ncc(-n3cccn3)cc2C1 [Compound 2-26, 7-(3-(1H-pyrazol-1-yl)-7,8-dihydro-1,6-naphthyridin-6(5H)-yl)-2-(difluoromethyl)-8-methyl-4H-pyrimido[1,2-b]pyridazin-4-one]
5 | 86 | 41 | Cc1cc2nc(C(F)F)cc(=O)n2nc1N1CCc2ncc(Nc3ccnn3C)cc2C1 [Compound 2-27, 2-(difluoromethyl)-8-methyl-7-(3-((1-methyl-1H-pyrazol-5-yl)amino)-7,8-dihydro-1,6-naphthyridin-6(5H)-yl)-4H-pyrimido[1,2-b]pyridazin-4-one]
6 | 85 | 19 | Cc1cc2n(n1)CCCN2c1cnc2c(c1)CN(c1nn3c(=O)cc(C(F)F)nc3cc1C)CC2 [Compound 2-28, 2-(difluoromethyl)-8-methyl-7-(3-(2-methyl-6,7-dihydropyrazolo[1,5-a]pyrimidin-4(5H)-yl)-7,8-dihydro-1,6-naphthyridin-6(5H)-yl)-4H-pyrimido[1,2-b]pyridazin-4-one]
7 | 90 | 13 | Cc1cc2nc(C(F)F)cc(=O)n2nc1N1CCc2ncc(N3CCOc4ncccc43)cc2C1 [Compound 2-29, 2-(difluoromethyl)-7-(3-(2,3-dihydro-1H-pyrido[2,3-b][1,4]oxazin-1-yl)-7,8-dihydro-1,6-naphthyridin-6(5H)-yl)-8-methyl-4H-pyrimido[1,2-b]pyridazin-4-one]
8 | 83 | 20 | Cc1c(N2CCc3ncc(N4CCCn5nccc54)cc3C2)nn2c(=O)cc(C(F)(F)F)nc2c1C [Compound 2-30, 7-(3-(6,7-dihydropyrazolo[1,5-a]pyrimidin-4(5H)-yl)-7,8-dihydro-1,6-naphthyridin-6(5H)-yl)-8,9-dimethyl-2-(trifluoromethyl)-4H-pyrimido[1,2-b]pyridazin-4-one]
9 | 91 | 14 | Cc1c(N2CCc3ncc(N4CCCn5nccc54)cc3C2)nn2c(=O)cc(C(F)F)nc2c1C [Compound 2-31, 2-(difluoromethyl)-7-(3-(6,7-dihydropyrazolo[1,5-a]pyrimidin-4(5H)-yl)-7,8-dihydro-1,6-naphthyridin-6(5H)-yl)-8,9-dimethyl-4H-pyrimido[1,2-b]pyridazin-4-one]
10 | 94 | 84 | Cc1c(N2CCc3ncc(N4CCO[C@H](C)C4)cc3C2)nn2c(=O)ccnc2c1C [Compound 2-32, (R)-8,9-dimethyl-7-(3-(2-methylmorpholino)-7,8-dihydro-1,6-naphthyridin-6(5H)-yl)-4H-pyrimido[1,2-b]pyridazin-4-one]
11 | 89 | 15 | Cc1c(N2CCc3ncc(N4CCOc5ncccc54)cc3C2)nn2c(=O)ccnc2c1C [Compound 2-33, 7-(3-(2,3-dihydro-1H-pyrido[2,3-b][1,4]oxazin-1-yl)-7,8-dihydro-1,6-naphthyridin-6(5H)-yl)-8,9-dimethyl-4H-pyrimido[1,2-b]pyridazin-4-one]
